Assay results from patent US7173004B2, “Macrocyclic isoquinoline peptide inhibitors of hepatitis C virus” (Bristol-Myers Squibb Company, priority 2003, dated 2007).
pIC50: −log10 of the molar value. Read-outs that look alike come from different tables or passages of the source.

Biological target: T1, HCV NS3/4A protease complex, BMS strain (genotype 1a) (UniProt P27958, C1454S/C1711G, species not given/STRAIN_BMS)
T1 construct: b1001: DNA encoding the recombinant HCV NS3/4A protease complex (amino acids 1027 to 1711) ... a three-lysine solubilizing tail was added at the 3′-end of the NS4A coding region; fused on or other part: Three-lysine solubilising tail at the C-terminus of NS4A; A His tag is implied by the pET21b vector and Ni-NTA purification
Assay: Recombinant HCV NS3/4A protease complex FRET peptide assay, BMS strain
Assay type: biochemical
Outline: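 Recombinant NS3/4A (aa 1027–1711) from H77C, J4L6S or BMS strains, with C1454S and C1711G mutations and three-lysine tail, expressed in E. coli and Ni-NTA/gel-filtration purified to >90%. Inhibition of cleavage of a FRET peptide substrate measured.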

[1] = NS3/4A BMS Strain, activity range classes
[2] = NS3/4A BMS strain, activity range symbols

## CC(C)(C)OC(=O)N[C@H]1CN(S(=O)(=O)c2ccccc2[N+](=O)[O-])CCC/C=C\[C@@H]2C[C@@]2(C(=O)O)NC(=O)[C@@H]2C[C@@H](Oc3nccc4ccccc34)CN2C1=O [Compound 144]
[1]
  pIC50: 5.30 to 6.30

## COc1ccc2c(OC3CC4C(=O)NC5(C(=O)NS(=O)(=O)C6CC6)CC5C=CCOCCCC(NC(=O)NC(C)(C)C)C(=O)N4C3)nccc2c1 (centres unmarked) [Compound 34]
[2]
  pIC50: > 7.30

## COc1ccc2c(OC3CC4C(=O)NC5(C(=O)NS(=O)(=O)C6CC6)CC5C=CCCCSCC(NC(=O)OCC(C)(C)C)C(=O)N4C3)nccc2c1 (centres unmarked) [Compound 75]
[2]
  pIC50: > 7.30

## COc1ccc2c(OC3CC4C(=O)NC5(C(=O)NS(=O)(=O)C6(C)CC6)CC5C=CCOCCCC(NC(=O)NC5CCCC5)C(=O)N4C3)nccc2c1 (centres unmarked) [Compound 36]
[2]
  pIC50: > 7.30

## CC(C)(C)OC(=O)N[C@H]1CCCCC/C=C\[C@@H]2C[C@@]2(C(=O)NS(=O)(=O)C2CC2)NC(=O)[C@@H]2C[C@@H](Oc3nc(-c4ccccc4)cc4ccccc34)CN2C1=O [Compound 58, [(Z)-(1S,4R,14S,18R)-4-cyclopropanesulfonylaminocarbonyl-2,15-dioxo-18-(3-phenyl-isoquinolin-1-yloxy)-3,16-diaza-tricyclo[14.3.0.0^4,6]nonadec-7-en-14-yl]-carbamic acid tert-butyl ester]
[2]
  pIC50: > 7.30

## CCC1(S(=O)(=O)NC(=O)C23CC2C=CCCCCCC(NC(=O)OC(C)(C)C)C(=O)N2CC(Oc4nccc5cc(OC)ccc45)CC2C(=O)N3)CC1 (centres unmarked) [Compound 54]
[2]
  pIC50: > 7.30

## COc1ccc2c(OC3CC4C(=O)NC5(C(=O)NS(=O)(=O)C6CC6)CC5C=CCCCOC(C)C(NC(=O)NC5CCCC5)C(=O)N4C3)nccc2c1 (centres unmarked) [Compound 65]
[2]
  pIC50: > 7.30

## COc1ccc2c(OC3CC4C(=O)NC5(C(=O)NS(=O)(=O)C6CC6)CC5C=CCOCCCC(NC(=O)OC(C)(C)C(F)(F)F)C(=O)N4C3)nccc2c1 (centres unmarked) [Compound 39]
[2]
  pIC50: > 7.30

## CCC1(S(=O)(=O)NC(=O)C23CC2C=CCOCCCC(NC(=O)OC(C)C)C(=O)N2CC(Oc4nccc5cc(OC)ccc45)CC2C(=O)N3)CC1 (centres unmarked) [Compound 37]
[2]
  pIC50: > 7.30

## COc1ccc2c(OC3CC4C(=O)NC5(C(=O)NS(=O)(=O)C6(C)CC6)CC5C=CCCCOC(C)C(NC(=O)OCC(C)(C)C)C(=O)N4C3)nccc2c1 (centres unmarked) [Compound 67]
[2]
  pIC50: > 7.30

## CC(C)(C)OC(=O)NC1CCCCCC=CC2CC2(C(=O)NS(=O)(=O)C2CC2)NC(=O)C2CC(Oc3nc(Cl)cc4ccccc34)CN2C1=O (centres unmarked) [Compound 57]
[2]
  pIC50: > 7.30

## COc1ccc2c(OC3CC4C(=O)NC5(C(=O)O)CC5C=CCCCCC(NC(=O)OC(C)(C)C)C(=O)N4C3)nccc2c1 (centres unmarked) [Compound 143]
[1]
  pIC50: 6.30 to 7.30

## CCC1(S(=O)(=O)NC(=O)C23CC2C=CCCCS(=O)(=O)CC(NC(=O)OC(C)(C)C)C(=O)N2CC(Oc4nccc5cc(OC)ccc45)CC2C(=O)N3)CC1 (centres unmarked) [Compound 48]
[2]
  pIC50: > 7.30

## CCC1(S(=O)(=O)NC(=O)C23CC2C=CCOCCCC(NC(=O)NC2CCCC2)C(=O)N2CC(Oc4nccc5cc(OC)ccc45)CC2C(=O)N3)CC1 (centres unmarked) [Compound 38]
[2]
  pIC50: > 7.30

## CC(C)S(=O)(=O)NC(=O)[C@@]12C[C@H]1/C=C\CCCCC[C@H](NC(=O)OC(C)(C)C)C(=O)N1C[C@H](Oc3nccc4ccccc34)C[C@H]1C(=O)N2 [Compound 3, [18-(Isoquinolin-1-yloxy)-2,15-dioxo-4-(propane-2-sulfonylaminocarbonyl)-3,16-diaza-tricyclo-[14.3.0.0^4,6]nonadec-7-en-14-yl]-carbamic acid tert-butyl ester]
[2]
  pIC50: > 7.30

## CCCNC(=O)NC1CCCCCC=CC2CC2(C(=O)NS(=O)(=O)C2CC2)NC(=O)C2CC(Oc3nccc4ccccc34)CN2C1=O (centres unmarked) [Compound 23]
[2]
  pIC50: > 7.30

## COc1ccc2c(OC3C[C@H]4C(=O)N[C@]5(C(=O)NS(=O)(=O)C6CC6)C[C@H]5/C=C\CCCSC[C@H](NC(=O)OC(C)(C)C)C(=O)N4C3)nccc2c1 (some centres unmarked) [Compound 18B, [4-Cyclopropanesulfonylaminocarbonyl-18-(6-methoxy-isoquinolin-1-yloxy)-2,15-dioxo-12-thia-3,16-diaza-tricyclo[14.3.0.0^4,6]nonadec-7-en-14-yl]-carbamic acid tert-butyl ester]
[2]
  pIC50: > 7.30

## COc1ccc2c(OC3CC4C(=O)NC5(C(=O)O)CC5C=CCCCSCC(NC(=O)OC(C)(C)C)C(=O)N4C3)nccc2c1 (centres unmarked) [Compound 18A, 14-tert-Butoxycarbonylamino-18-(6-methoxy-isoquinolin-1-yloxy)-2,15-dioxo-12-thia-3,16-diaza-tricyclo[14.3.0.0^4,6]nonadec-7-ene-4-carboxylic acid]
[1]
  pIC50: 6.30 to 7.30

## CC(C)(C)OC(=O)NC1CSCCCC=CC2CC2(C(=O)NS(=O)(=O)C2CC2)NC(=O)C2CC(Oc3nccc4c(Cl)cccc34)CN2C1=O (centres unmarked) [Compound 78]
[2]
  pIC50: > 7.30

## CS(=O)(=O)NC1CCCCCC=CC2CC2(C(=O)NS(=O)(=O)C2CC2)NC(=O)C2CC(Oc3nccc4ccccc34)CN2C1=O (centres unmarked) [Compound 25]
[2]
  pIC50: > 7.30

## O=C(N[C@H]1CCCCC/C=C\[C@@H]2C[C@@]2(C(=O)NS(=O)(=O)C2CC2)NC(=O)[C@@H]2C[C@@H](Oc3nccc4ccccc34)CN2C1=O)OC1CCOCC1 [Compound 14, [4-Cyclopropanesulfonylaminocarbonyl-18-(isoquinolin-1-yloxy)-2,15-dioxo-3,16-diaza-tricyclo[14.3.0.0^4,6]nonadec-7-en-14-yl]-carbamic acid tetrahydro-pyran-4-yl ester]
[2]
  pIC50: > 7.30

## CC(C)(C)OC(=O)N[C@H]1CCCCC/C=C\[C@@H]2C[C@@]2(C(=O)NS(C)(=O)=O)NC(=O)[C@@H]2C[C@@H](Oc3nccc4ccccc34)CN2C1=O [Compound 2, [18-(Isoquinolin-1-yloxy)-4-methanesulfonylaminocarbonyl-2,15-dioxo-3,16-diaza-tricyclo[14.3.0.0^4,6]nonadec-7-en-14-yl]-carbamic acid tert-butyl ester]
[2]
  pIC50: > 7.30
read-out: IC50 against the BMS strain NS3/4A protease in the enzyme assay, BMS strain
  pIC50: 7.59

## CCCC1(S(=O)(=O)NC(=O)[C@@]23C[C@H]2CCCCCCC[C@H](NC(=O)OC(C)(C)C)C(=O)N2C[C@H](Oc4nccc5ccccc45)C[C@H]2C(=O)N3)CC1 [Compound 7, [18-(Isoquinolin-1-yloxy)-2,15-dioxo-4-(1-propyl-cyclopropanesulfonylaminocarbonyl)-3,16-diaza-tricyclo[14.3.0.0^4,6]nonadec-14-yl]-carbamic acid tert-butyl ester]
[2]
  pIC50: > 7.30

## COc1ccc2c(OC3CC4C(=O)NC5(C(=O)NS(=O)(=O)C6(C)CC6)CC5C=CCCCOC(C)C(NC(=O)OC(C)C)C(=O)N4C3)nccc2c1 (centres unmarked) [Compound 68]
[2]
  pIC50: > 7.30

## CC(C)(C)OC(=O)N[C@H]1CCCCCCC[C@@H]2C[C@@]2(C(=O)NS(=O)(=O)C2CC2)NC(=O)[C@@H]2C[C@@H](Oc3nccc4ccccc34)CN2C1=O [Compound 10, [4-Cyclopropanesulfonylaminocarbonyl-18-(isoquinolin-1-yloxy)-2,15-dioxo-3,16-diaza-tricyclo[14.3.0.0^4,6]nonadec-14-yl]-carbamic acid tert-butyl ester]
[2]
  pIC50: > 7.30

## CC(=O)NC1CCCCCC=CC2CC2(C(=O)NS(=O)(=O)C2CC2)NC(=O)C2CC(Oc3nccc4ccccc34)CN2C1=O (centres unmarked) [Compound 26]
[2]
  pIC50: > 7.30

## COc1ccc2c(OC3CC4C(=O)NC5(C(=O)NS(=O)(=O)C6CC6)CC5C=CCCCCCC(NC(=O)N5CCCC5)C(=O)N4C3)nccc2c1 (centres unmarked) [Compound 60]
[2]
  pIC50: > 7.30

## CC(C)(C)OC(=O)N[C@H]1CCCCC/C=C\[C@@H]2C[C@@]2(C(=O)NS(=O)(=O)C2CCC2)NC(=O)[C@@H]2C[C@@H](Oc3nccc4ccccc34)CN2C1=O [Compound 9, [4-Cyclobutanesulfonylaminocarbonyl-18-(isoquinolin-1-yloxy)-2,15-dioxo-3,16-diaza-tricyclo[14.3.0.0^4,6]nonadec-7-en-14-yl]-carbamic acid tert-butyl ester]
[2]
  pIC50: > 7.30

## CCC1(S(=O)(=O)NC(=O)C23CC2C=CCCCOC(C)C(NC(=O)OC(C)C)C(=O)N2CC(Oc4nccc5cc(OC)ccc45)CC2C(=O)N3)CC1 (centres unmarked) [Compound 72]
[2]
  pIC50: > 7.30

## COc1ccc2c(OC3CC4C(=O)NC5(C(=O)NS(=O)(=O)C6CC6)CC5C=CCCCOC(C)C(NC(=O)OCC(C)(C)C)C(=O)N4C3)nccc2c1 (centres unmarked) [Compound 63]
[2]
  pIC50: > 7.30

## COc1ccc2c(O[C@@H]3C[C@H]4C(=O)N[C@]5(C(=O)O)C[C@H]5/C=C\CCCO[C@H](C)[C@H](NC(=O)OC(C)(C)C)C(=O)N4C3)nccc2c1 [Compound 61]
[1]
  pIC50: 5.30 to 6.30
